Read-outs that look alike come from different tables or passages of the source.
What was measured:
[1] = biological target: T1, GSPT1 (Homo sapiens, UniProt P15170+Q96SW2); assay: GSPT1 HiBiT degradation assay; format: cell-based; details: HEK293 LgBiT GSPT1 HiBiT cells, 6 hours
T1 construct: host or cells: HEK293 LgBiT / GSPT1 HiBiT CRISPR knock-in
Outline: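 HEK293 CRISPR knock-in cells expressing LgBiT and GSPT1-HiBiT were seeded at 1000 cells/well and, after 18-24 h, treated with titrated compound plus endurazine (0.5× final) at 37 °C. Luminescence read after 6 h; loss of signal reflects GSPT1 degradation, giving DC50.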

[2] = tested on: GSPT1; assay: Payload release assay (DC50 readout), GSPT1 degradation in the presence of recombinant target protein; format: cell-based; details: I-series compounds (GSPT1 readout inferred)
Description: Exemplary compounds were tested for ability to cause degradation of CCNK or GSPT1 in the presence of recombinant target protein.
HEK293 LgBiT/GSPT1 HiBiT CRISPR Knock-in cells (Promega) were cultured in DMEM (Gibco 11995), supplemented with 10% Heat-inactivated FBS (Gibco A38400-01) and 1% Penicillin/Streptomycin (Gibco 15140-122) and 200 Vg/ml Hygromycin B (Gibco 10-687-010) at 37° C. with 5% CO2 in a humidified tissue culture incubator. HEK293 LgBiT/CCNK HiBiT cells (in-house, described above) were cultured in DMEM (Gibco 11995), supplemented with 10% Heat-inactivated FBS (Gibco A38400-01) and 1% Penicillin/Streptomycin (Gibco 15140-122) 200 Vg/ml Hygromycin B (Gibco 10-687-010), and 1 Vg/ml Puromycin Dihydrochloride (Thermo A1113803) at 37° C. with 5% CO2 in a humidified tissue culture incubator. Cells were seeded (1000 cells/well for HEK293 LgBiT/GSPT1 HiBiT cells or 3000 cells/well for HEK293 LgBiT/CCNK HiBiT cells) 384-well, tissue culture-treated white plates (Perkin Elmer 6007680) in 10 μL media lacking selection for 18-24 hours. Plates were spun at 300 g for 30 seconds and stored in the incubator overnight. After 24 hours, a 5 μL aliquot of recombinant target protein (final concentration of either 5 μM KRAS amino acids 1-169, C51S, C80L, C118S, G12C or 3 μM EGFR amino acids 696-1022 or 3 μM EGFR amino acids 696-1022, T790M, L858R) was added to wells, followed immediately by a 5 μL aliquot of 4× compound-containing medium supplemented with Endurazine Substrate (Promega N2570) was added in each well, at a final top concentration of 10 μM test compound and 0.5× Endurazine, with 4-fold dilutions, using DMSO alone as a negative control. Plates were then spun at 300×g for 3 minutes again and cultured at 37° C. with 5% CO2. After 6 hours the plate was read on Envision MultiMode Plate Reader 2105 (Perkin Elmer) to measure luminescence signal. Data was normalized to DMSO treated cell wells. A four-parameter non-linear regression curve fit was applied to dose-response data in Prism to determine the half maximal growth inhibitory concentration (GI50) of each compound.

[3] = 0 μM recombinant KRAS G12C, read-out: DC50 at 0 μM KRAS G12C
[4] = 5 μM recombinant KRAS G12C, read-out: DC50 at 5 μM KRAS G12C
[5] = 0 μM recombinant EGFR T790M L858R, read-out: DC50 at 0 μM EGFR T790M L858R
[6] = 0 μM recombinant EGFR WT, read-out: DC50 at 0 μM EGFR WT
[7] = 3 μM recombinant EGFR T790M L858R, read-out: DC50 at 3 μM EGFR T790M L858R
[8] = 3 μM recombinant EGFR WT, read-out: DC50 at 3 μM EGFR WT

T1 sequence (P15170 whole entry): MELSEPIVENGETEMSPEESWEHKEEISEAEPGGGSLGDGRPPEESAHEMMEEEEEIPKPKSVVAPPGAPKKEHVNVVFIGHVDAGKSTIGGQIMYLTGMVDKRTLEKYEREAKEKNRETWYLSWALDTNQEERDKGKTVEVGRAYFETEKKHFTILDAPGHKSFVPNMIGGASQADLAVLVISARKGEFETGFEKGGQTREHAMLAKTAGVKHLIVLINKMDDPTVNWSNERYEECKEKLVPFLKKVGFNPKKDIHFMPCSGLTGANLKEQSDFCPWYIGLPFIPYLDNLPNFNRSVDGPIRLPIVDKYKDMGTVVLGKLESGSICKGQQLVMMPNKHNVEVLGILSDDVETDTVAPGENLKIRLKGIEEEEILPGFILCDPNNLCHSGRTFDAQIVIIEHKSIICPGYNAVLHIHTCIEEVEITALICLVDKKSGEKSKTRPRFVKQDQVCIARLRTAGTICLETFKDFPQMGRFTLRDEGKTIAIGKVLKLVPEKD
T1 sequence (Q96SW2 whole entry): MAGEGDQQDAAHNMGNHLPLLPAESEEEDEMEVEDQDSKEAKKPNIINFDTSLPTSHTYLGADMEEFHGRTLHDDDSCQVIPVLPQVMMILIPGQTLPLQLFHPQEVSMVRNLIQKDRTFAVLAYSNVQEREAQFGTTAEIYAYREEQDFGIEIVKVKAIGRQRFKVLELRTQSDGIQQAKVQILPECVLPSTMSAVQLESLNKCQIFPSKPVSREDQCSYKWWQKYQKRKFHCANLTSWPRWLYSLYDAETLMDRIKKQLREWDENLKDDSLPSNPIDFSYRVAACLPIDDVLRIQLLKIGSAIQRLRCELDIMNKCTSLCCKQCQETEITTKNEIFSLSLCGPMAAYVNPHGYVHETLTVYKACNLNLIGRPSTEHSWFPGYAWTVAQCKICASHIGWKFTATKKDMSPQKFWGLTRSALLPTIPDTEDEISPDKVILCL
T1 sequence (Q16531 whole entry partner): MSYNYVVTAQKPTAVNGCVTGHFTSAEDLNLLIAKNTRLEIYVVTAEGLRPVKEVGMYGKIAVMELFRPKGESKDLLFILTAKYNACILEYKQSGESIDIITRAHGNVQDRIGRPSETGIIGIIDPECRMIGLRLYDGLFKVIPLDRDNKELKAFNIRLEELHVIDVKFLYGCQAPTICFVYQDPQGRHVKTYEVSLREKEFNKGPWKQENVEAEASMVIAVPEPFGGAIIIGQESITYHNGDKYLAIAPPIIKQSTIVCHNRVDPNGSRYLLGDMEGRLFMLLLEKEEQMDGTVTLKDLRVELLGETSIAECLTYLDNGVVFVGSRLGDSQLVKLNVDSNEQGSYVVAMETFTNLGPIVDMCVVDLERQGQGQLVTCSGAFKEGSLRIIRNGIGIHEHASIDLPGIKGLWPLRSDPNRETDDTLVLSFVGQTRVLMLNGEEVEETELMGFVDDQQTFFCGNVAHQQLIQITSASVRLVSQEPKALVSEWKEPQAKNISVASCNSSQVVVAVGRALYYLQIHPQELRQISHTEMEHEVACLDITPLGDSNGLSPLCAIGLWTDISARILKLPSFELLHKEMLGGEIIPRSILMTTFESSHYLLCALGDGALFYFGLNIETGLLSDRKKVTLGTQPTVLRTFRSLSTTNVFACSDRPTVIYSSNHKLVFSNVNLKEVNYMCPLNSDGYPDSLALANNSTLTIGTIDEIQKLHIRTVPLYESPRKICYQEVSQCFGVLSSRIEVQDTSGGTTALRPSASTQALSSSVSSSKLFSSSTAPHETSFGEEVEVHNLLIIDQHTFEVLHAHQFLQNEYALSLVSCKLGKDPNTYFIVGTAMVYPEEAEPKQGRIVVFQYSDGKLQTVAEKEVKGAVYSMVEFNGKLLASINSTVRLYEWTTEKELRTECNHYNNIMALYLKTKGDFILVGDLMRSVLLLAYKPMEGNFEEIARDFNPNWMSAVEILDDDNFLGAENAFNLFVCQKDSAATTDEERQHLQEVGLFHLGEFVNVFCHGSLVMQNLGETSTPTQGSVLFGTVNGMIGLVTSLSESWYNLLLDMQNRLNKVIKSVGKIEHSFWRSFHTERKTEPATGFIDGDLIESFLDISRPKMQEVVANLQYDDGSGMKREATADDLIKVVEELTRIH

In the case of C=C(COc1ccc(CN2C(=O)CCC(N3Cc4cc(CNC(=O)Nc5ccc(C)c(Cl)c5)ccc4C3=O)C2=O)cc1)C(=O)N1CCN(c2nc(OC[C@H]3CCCN3C)nc3c2CCN(c2cccc4cccc(Cl)c24)C3)C[C@@H]1CC#N (stereo in doubt) [Compound I-44], the DC50 [1] is reported as over 2.5 µM, the DC50 [2, 3] is reported as over 10 µM and the DC50 [2, 4] is reported as 0.25 to 5 µM.
C=C(COc1cc(Cl)cc(NC(=O)NCc2ccc3c(c2)CN(C2CCC(=O)NC2=O)C3=O)c1)C(=O)N1CCN(c2nc(OC[C@@H]3CCCN3C)nc3c2CCN(c2cccc4cccc(Cl)c24)C3)C[C@@H]1CC#N (stereo partly drawn) [Compound I-35] gave a DC50 [1] of over 2.5 µM, a DC50 [2, 3] of 0.25 to 5 µM and a DC50 [2, 4] of under 0.25 µM.
With C=C(COc1cc(Cl)c(OC)cc1NC(=O)NCc1ccc2c(c1)CN(C1CCC(=O)NC1=O)C2=O)C(=O)N1CCN(c2nc(OC[C@@H]3CCCN3C)nc3c2CCN(c2cccc4cccc(Cl)c24)C3)C[C@@H]1CC#N (stereo partly drawn) [Compound I-46] the DC50 [1] was 0.5 to 2.5 µM, the DC50 [2, 3] was 0.25 to 5 µM and the DC50 [2, 4] was under 0.25 µM.
In the case of C=C(COc1cc(NC(=O)NCc2ccc3c(c2)CN(C2CCC(=O)NC2=O)C3=O)cc(C(F)(F)F)c1)C(=O)N1CCN(c2nc(OC[C@@H]3CCCN3C)nc3c2CCN(c2cccc4cccc(Cl)c24)C3)C[C@@H]1CC#N (stereo partly drawn) [Compound I-48], the DC50 [1] is reported as 0.5 to 2.5 µM, the DC50 [2, 3] is reported as 0.25 to 5 µM and the DC50 [2, 4] is reported as 0.25 to 5 µM.
For C=C(COc1cccc(NC(=O)NCc2ccc3c(c2)CN(C2CCC(=O)NC2=O)C3=O)c1)C(=O)N1CCN(c2nc(OC[C@@H]3CCCN3C)nc3c2CCN(c2cccc4cccc(Cl)c24)C3)C[C@@H]1CC#N (stereo partly drawn) [Compound I-49], the DC50 [1] was 0.5 to 2.5 µM, the DC50 [2, 3] was 0.25 to 5 µM and the DC50 [2, 4] was over 10 µM.
Work on C=C(COc1cc(NC(=O)NCc2ccc3c(c2)CN(C2CCC(=O)NC2=O)C3=O)cc(OC)c1)C(=O)N1CCN(c2nc(OC[C@@H]3CCCN3C)nc3c2CCN(c2cccc4cccc(Cl)c24)C3)C[C@@H]1CC#N (stereo partly drawn) [Compound I-50] yielded a DC50 [1] of over 2.5 µM, a DC50 [2, 3] of 0.25 to 5 µM and a DC50 [2, 4] of 0.25 to 5 µM.
C=C(COc1ccc(Cl)cc1NC(=O)NCc1ccc2c(c1)CN(C1CCC(=O)NC1=O)C2=O)C(=O)N1CCN(c2nc(OC[C@@H]3CCCN3C)nc3c2CCN(c2cccc4cccc(Cl)c24)C3)C[C@@H]1CC#N (stereo partly drawn) [Compound I-52] gave a DC50 [1] of 0.5 to 2.5 µM, a DC50 [2, 3] of 0.25 to 5 µM and a DC50 [2, 4] of under 0.25 µM.
C=C(COc1cc(Cl)cc(NC(=O)NCc2ccc3c(c2)CN(C2CCC(=O)NC2=O)C3=O)c1)C(=O)N1CC2(CC(n3nc(-c4ccc5c(cnn5C)c4)c(-c4c(Cl)c(C)cc5[nH]ncc45)c3C)C2)C1 (stereo not drawn) [Compound I-56] was tested, and the DC50 [1] was over 2.5 µM, the DC50 [2, 3] was under 0.25 µM and the DC50 [2, 4] was under 0.25 µM.
In the case of C=C(CN(C)c1cccc(NC(=O)NCc2ccc3c(c2)CN(C2CCC(=O)NC2=O)C3=O)c1)C(=O)N1CCN(c2nc(OC[C@@H]3CCCN3C)nc3c2CCN(c2cccc4cccc(Cl)c24)C3)C[C@@H]1CC#N (stereo partly drawn) [Compound I-58], the DC50 [1] is reported as over 2.5 µM, the DC50 [2, 3] is reported as over 10 µM and the DC50 [2, 4] is reported as 5 to 10 µM.
For C=C(COc1cc(F)c(F)cc1NC(=O)NCc1ccc2c(c1)CN(C1CCC(=O)NC1=O)C2=O)C(=O)N1CCN(c2nc(OC[C@@H]3CCCN3C)nc3c2CCN(c2cccc4cccc(Cl)c24)C3)C[C@@H]1CC#N (stereo partly drawn) [Compound I-62], the DC50 [1] was 0.5 to 2.5 µM, the DC50 [2, 3] was 0.25 to 5 µM and the DC50 [2, 4] was under 0.25 µM.
C=C(COc1ccccc1CNC(=O)NCc1ccc2c(c1)CN(C1CCC(=O)NC1=O)C2=O)C(=O)N1CCN(c2nc(OC[C@@H]3CCCN3C)nc3c2CCN(c2cccc4cccc(Cl)c24)C3)C[C@@H]1CC#N (stereo partly drawn) [Compound I-63] gave a DC50 [1] of over 2.5 µM, a DC50 [2, 3] of over 10 µM and a DC50 [2, 4] of over 10 µM.
With C=C(COc1cc(Cl)cc(NC(=O)NCc2cc3c(cc2F)C(=O)N(C2CCC(=O)NC2=O)C3)c1)C(=O)N1CCN(c2nc(OC[C@@H]3CCCN3C)nc3c2CCN(c2cccc4cccc(Cl)c24)C3)C[C@@H]1CC#N (stereo partly drawn) [Compound I-64] the DC50 [1] was 0.5 to 2.5 µM, the DC50 [2, 3] was 0.25 to 5 µM and the DC50 [2, 4] was under 0.25 µM.
Compound C=C(COc1cc(Cl)c(OC)cc1NC(=O)NCc1ccc2c(c1)CN(C1CCC(=O)NC1=O)C2=O)C(=O)N1CC2(CC(n3nc(-c4ccc5c(cnn5C)c4)c(-c4c(Cl)c(C)cc5[nH]ncc45)c3C)C2)C1 (stereo not drawn) [Compound I-66] has a DC50 [1] of 0.05 to 0.5 µM, a DC50 [2, 3] of under 0.25 µM and a DC50 [2, 4] of under 0.25 µM.
Compound C=C(COc1cc(NC(=O)NCc2ccc3c(c2)CN(C2CCC(=O)NC2=O)C3=O)cc(OC)c1)C(=O)N1CC2(CC(n3nc(-c4ccc5c(cnn5C)c4)c(-c4c(Cl)c(C)cc5[nH]ncc45)c3C)C2)C1 (stereo not drawn) [Compound I-67] has a DC50 [1] of 0.5 to 2.5 µM, a DC50 [2, 3] of 0.25 to 5 µM and a DC50 [2, 4] of 0.25 to 5 µM.
Work on C=C(COc1cc(NC(=O)NCc2ccc3c(c2F)CN(C2CCC(=O)NC2=O)C3=O)cc(C(F)(F)F)c1)C(=O)N1CC2(CC(n3nc(-c4ccc5c(cnn5C)c4)c(-c4c(Cl)c(C)cc5[nH]ncc45)c3C)C2)C1 (stereo not drawn) [Compound I-68] yielded a DC50 [1] of over 2.5 µM, a DC50 [2, 3] of over 10 µM and a DC50 [2, 4] of over 10 µM.
C=C(COc1c(Cl)cccc1NC(=O)NCc1ccc2c(c1)CN(C1CCC(=O)NC1=O)C2=O)C(=O)N[C@@H]1CN(c2nc(Nc3cn(C)nc3OC)c3ncn(C)c3n2)C[C@H]1F (stereo partly drawn) [Compound I-69] showed a DC50 [1] of 0.05 to 0.5 µM, a DC50 [2, 5] of under 0.25 µM and a DC50 [2, 6] of under 0.25 µM. It also gave a DC50 [2, 7] of under 0.25 µM and a DC50 [2, 8] of under 0.25 µM.
C=C(CN(C(=O)NCc1ccc2c(c1)CN(C1CCC(=O)NC1=O)C2=O)c1ccc(C)c(Cl)c1)C(=O)Nc1cccc(Oc2nc(Nc3ccc(N4CCN(C)CC4)cc3)nc3ccsc23)c1 (stereo not drawn) [Compound I-70] showed a DC50 [1] of over 2.5 µM, a DC50 [2, 5] of 0.25 to 5 µM and a DC50 [2, 6] of 0.25 to 5 µM. The DC50 [2, 7] was 0.25 to 5 µM and the DC50 [2, 8] was 0.25 to 5 µM.
Work on C=C(CN(C(=O)NCc1ccc2c(c1)CN(C1CCC(=O)NC1=O)C2=O)c1ccc(C)c(Cl)c1)C(=O)N1C[C@@H](COc2nc(Nc3cnn(C)c3)nc3[nH]cc(Cl)c23)[C@H](OC)C1 (stereo partly drawn) [Compound I-71] yielded a DC50 [1] of 0.5 to 2.5 µM, a DC50 [2, 5] of 0.25 to 5 µM and a DC50 [2, 6] of 0.25 to 5 µM. For the same compound, the DC50 [2, 7] was 0.25 to 5 µM and the DC50 [2, 8] was 0.25 to 5 µM.
C=C(COC(=O)c1c(C)csc1NC(=O)NCc1ccc2c(c1)CN(C1CCC(=O)NC1=O)C2=O)C(=O)N1CCN(c2nc(OC[C@@H]3CCCN3C)nc3c2CCN(c2cccc4cccc(Cl)c24)C3)C[C@@H]1CC#N (stereo partly drawn) [Compound I-72, 2-[(2S)-4-[7-(8-chloro-1-naphthyl)-2-[[(2S)-1-methylpyrrolidin-2-yl]methoxy]-6,8-dihydro-5H-pyrido[3,4-d]pyrimidin-4-yl]-2-(cyanomethyl)piperazine-1-carbonyl]allyl 2-[[2-(2,6-dioxo-3-piperidyl)-1-oxo-isoindolin-5-yl]methylcarbamoylamino]-4-methyl-thiophene-3-carboxylate] was tested, and the DC50 [1] was over 2.5 µM, the DC50 [2, 3] was over 10 µM and the DC50 [2, 4] was 0.25 to 5 µM.
C=C(COC(=O)NCc1cc(Cl)cc(NC(=O)NCc2ccc3c(c2)CN(C2CCC(=O)NC2=O)C3=O)c1)C(=O)N1CCN(c2nc(OC[C@@H]3CCCN3C)nc3c2CCN(c2cccc4cccc(Cl)c24)C3)C[C@@H]1CC#N (stereo partly drawn) [Compound I-73] gave a DC50 [1] of 0.05 to 0.5 µM, a DC50 [2, 3] of under 0.25 µM and a DC50 [2, 4] of under 0.25 µM.
In the case of C=C(COC(=O)NCCCc1cc(Cl)cc(NC(=O)NCc2ccc3c(c2)CN(C2CCC(=O)NC2=O)C3=O)c1)C(=O)N1CCN(c2nc(OC[C@@H]3CCCN3C)nc3c2CCN(c2cccc4cccc(Cl)c24)C3)C[C@@H]1CC#N (stereo partly drawn) [Compound I-74], the DC50 [1] is reported as 0.5 to 2.5 µM, the DC50 [2, 3] is reported as 0.25 to 5 µM and the DC50 [2, 4] is reported as under 0.25 µM.
With C=C(COc1cc(NC(=O)NCc2ccc3c(c2)CN(C2CCC(=O)NC2=O)C3=O)cc(F)c1F)C(=O)N1CCN(c2nc(OC[C@@H]3CCCN3C)nc3c2CCN(c2cccc4cccc(Cl)c24)C3)C[C@@H]1CC#N (stereo partly drawn) [Compound I-75] the DC50 [1] was over 2.5 µM, the DC50 [2, 3] was over 10 µM and the DC50 [2, 4] was over 10 µM.
